In brackets after ≈: the same amount, converted by molar mass.
System: M. tuberculosis H37Rv growth inhibition
Test: Mycobacterium tuberculosis H37Rv growth inhibition, putative kinase inhibitor library, confirmatory dose response (AID 2842);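 also: bacteria incubated one week before Alamar blue readout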

| SMILES | IC90 [µg/mL] |
| --- | --- |
| CCN(CC)S(=O)(=O)c1ccc(C(=O)Nc2sccc2C(=O)NC(=O)OC)cc1 | < 0.2 |
| CCCCOc1cccc(C(=O)Nc2nnc(-c3cc(Cl)ccc3Cl)o2)c1 | 12.9 (≈ 31.8 µM) |
| CC(C)N1CCc2c(sc(NC(=O)c3cc4c(ccc5ccccc54)oc3=O)c2C(N)=O)C1 | 40.2 (≈ 87 µM) |
| CCc1cccc(OCC(O)Cn2c(NCc3ccccc3)nc3c2c(=O)[nH]c(=O)n3C)c1 (centres undefined) | 22.1 (≈ 49.1 µM) |
| Cc1ccccc1C(=O)Nc1nnc(-c2ccc(F)cc2)o1 | < 0.2 |
| COc1ccc(C2c3cccn3CCN2C(=O)Nc2ccc(Cl)cc2)cc1 (centres undefined) | 9.87 (≈ 25.8 µM) |
| COC(=O)c1ccc(C(=O)NNc2nc3c(C)cc(C)cc3s2)cc1 | 6.49 (≈ 18.3 µM) |
| CCOC(=O)c1c(NC(=O)c2cccc3ccccc23)sc2c1CCN(CC)C2 | 5.45 (≈ 13.3 µM) |
| COc1ccc(-c2nc(NC(=O)c3cccc(C)c3)sc2C)cc1 | 5.78 (≈ 17.1 µM) |
| CC(C)OC(=O)COc1ccc2cc(-c3ccccc3)c(=O)oc2c1 | 2.97 (≈ 8.78 µM) |
| CCOC(=O)CNC(=O)CSc1ncnc2c1nnn2-c1ccc(OC)cc1 | 6.79 (≈ 16.9 µM) |
| O=C(c1ccco1)N(CCCn1ccnc1)c1nc2ccc(Br)cc2s1 | 0.74 (≈ 1.72 µM) |
| CC1CCc2c(sc(Nc3nc4ccc(F)cc4s3)c2C(N)=O)C1 (centres undefined) | 35.8 (≈ 99 µM) |
| O=C(Nc1nnc(-c2cc(Cl)ccc2Cl)o1)c1cccs1 | 0.76 (≈ 2.23 µM) |
| Cc1c(Cc2ccc(Cl)cc2)c(NCCCN(C)C)n2c(nc3ccccc32)c1C#N | 2.21 (≈ 5.12 µM) |
| CCN1CCc2c(sc(NC(=O)c3ccc([N+](=O)[O-])o3)c2C(N)=O)C1 | 6.91 (≈ 19 µM) |
| CCOc1ccc2c(c1)c1nnc(-c3ccc(OC)cc3)c-1cn2Cc1ccccc1F | 4.73 (≈ 11.1 µM) |
| Cc1ccc(-c2nnc(NC(=O)c3ccc4c(c3)CCCC4)o2)c(C)c1 | 36.9 (≈ 106 µM) |
| CCCCOc1ccc(C(=O)Nc2nnc(-c3ccccn3)o2)cc1 | 11.6 (≈ 34.3 µM) |
| O=C(c1ccc(NC2=C(Cl)C(=O)N(Cc3ccccc3)C2=O)cc1)N1CCCCC1 | 6.24 (≈ 14.7 µM) |
| OC(CNCc1ccco1)Cn1c2ccc(Cl)cc2c2cc(Cl)ccc21 (centres undefined) | 1.71 (≈ 4.39 µM) |
| Cc1ccc2nc(NNC(=O)c3cccc(F)c3)sc2c1 | 7.65 (≈ 25.4 µM) |
| Fc1cccc2sc(N3CCCC3)nc12 | 86.3 (≈ 388 µM) |

| SMILES | IC90 [µg/mL] |
| --- | --- |
| Cc1ccc(CC(=O)N(CCCn2ccnc2)c2nc3ccccc3s2)c(C)c1 | 4.82 (≈ 11.9 µM) |
| O=C(Cc1cccc2ccccc12)Nc1nnc(-c2cc(Cl)ccc2Cl)o1 | 94.5 (≈ 237 µM) |
| O=C(Nc1nc(-c2nc3ccccc3s2)cs1)C1COc2ccccc2O1 (centres undefined) | 26.8 (≈ 67.8 µM) |
| COc1cccc(C(=O)N(CCCn2ccnc2)c2nc3ccc(C)cc3s2)c1OC | 2.63 (≈ 6.02 µM) |
| O=C(Nc1nnc(-c2ccc(Br)cc2)o1)C1=COCCO1 | 24.9 (≈ 70.8 µM) |
| O=C(CCCN1C(=O)/C(=C\c2ccco2)SC1=S)Nc1ccccn1 | 4.87 (≈ 13 µM) |
| CCN(CC)S(=O)(=O)c1ccc(C(=O)Nc2nnc(-c3cc(Cl)ccc3Cl)o2)cc1 | 7.57 (≈ 16.1 µM) |
| Cc1cc(NS(=O)(=O)c2ccc(NC(=O)CCCOc3ccc(Cl)cc3)cc2)no1 | 19.1 (≈ 42.5 µM) |
| COc1ccccc1-c1nc(C(N)=O)c2[nH]c(=O)n(-c3ccc(C(C)(C)C)cc3)c2n1 | 9.91 (≈ 23.7 µM) |
| CSc1cccc(-c2nnc(NC(=O)/C=C/c3cccs3)o2)c1 | 4.49 (≈ 13.1 µM) |
| O=C(Nc1nnc(-c2ccc(Cl)cc2)o1)c1cccc(C(F)(F)F)c1 | 2.99 (≈ 8.13 µM) |
| COc1cccc2sc(Nc3nc4c(F)cccc4s3)nc12 | 14.5 (≈ 43.6 µM) |
| COc1cccc(-c2nnc(NC(=O)c3cccc(F)c3)o2)c1 | < 0.2 |
| Cc1ccc(-c2nnc(NC(=O)c3ccc(S(=O)(=O)N(C)C4CCCCC4)cc3)o2)c(C)c1 | 39.2 (≈ 83.6 µM) |
| Cc1ccc(-c2nnc(NC(=O)c3ccccc3Br)o2)c(C)c1 | 0.27 (≈ 0.725 µM) |
| COc1cccc2sc(N(CCCn3ccnc3)C(=O)c3cccs3)nc12 | 5.7 (≈ 14.3 µM) |
| COc1cccc(-c2nnc(SCC(=O)Nc3cc(C)on3)o2)c1 | 3.26 (≈ 9.41 µM) |
| COc1ccc2nc(Nc3sc4c(c3C(N)=O)CCC(C)C4)sc2c1 (centres undefined) | 27.8 (≈ 74.5 µM) |
| CC(C)c1ccc2nc(Nc3nc4ccc(S(C)(=O)=O)cc4s3)sc2c1 | 12 (≈ 29.8 µM) |
| COc1ccc2c(c1)c(=O)c(C(=O)c1ccc(Cl)cc1)cn2Cc1ccccc1 | 6.44 (≈ 15.9 µM) |
| Cc1ccc(-n2ncc3c(NCc4cccnc4)ncnc32)cc1C | 6.03 (≈ 18.3 µM) |
| O=C(Nc1nnc(-c2ccncc2)o1)c1cccc(C(F)(F)F)c1 | 28.1 (≈ 84.2 µM) |
| Cc1ccc(CC(=O)Nc2nnc(-c3ccco3)o2)c(C)c1 | 17.9 (≈ 60 µM) |

| SMILES | IC90 [µg/mL] |
| --- | --- |
| O=C1CC(c2nc3ccccc3n2Cc2ccccc2Cl)CN1c1ccccc1F (centres undefined) | 18.1 (≈ 43.2 µM) |
| O=C(Nc1nnc(-c2ccccc2)o1)c1ccco1 | 2.78 (≈ 10.9 µM) |
| COc1ccc(-c2nnc(Nc3nc4c(OC)cccc4s3)o2)cc1 | 23.6 (≈ 66.5 µM) |
| COc1ccc(Nc2nc(N3CCN(Cc4ccccc4)CC3)nc3nccnc23)cc1 | 4.69 (≈ 11 µM) |
| COc1ccccc1Cn1cc2c(-c3ccc(C)cc3)nnc-2c2cc(C)ccc21 | 3.48 (≈ 8.84 µM) |
| Cc1ccc(C)c(-c2nnc(NC(=O)c3ccccc3Cl)o2)c1 | 3.12 (≈ 9.52 µM) |
| COc1cccc(Nc2nc3ccc(OC)cc3s2)c1 | 23.3 (≈ 81.2 µM) |
| CCCCOc1ccc(C(=O)Nc2nnc(-c3cc(C)ccc3C)o2)cc1 | 25.4 (≈ 69.5 µM) |
| Cc1c(C)n2c3c(=O)[nH]c(=O)n(C)c3nc2n1-c1ccccc1O | 0.75 (≈ 2.31 µM) |
| COc1cc2c3nnc(-c4ccc(C)cc4)c-3cn(Cc3cccc(C)c3)c2cc1OC | 28.3 (≈ 66.9 µM) |
| O=C(Nc1nnc(-c2ccco2)o1)c1ccccc1F | 6.69 (≈ 24.5 µM) |
| CS(=O)(=O)c1ccc(CC(=O)Nc2nnc(-c3ccc4c(c3)CCCC4)o2)cc1 | 13.9 (≈ 33.7 µM) |
| CC(C)CCn1c(N2CCN(Cc3cccc(Cl)c3)CC2)nc2c1c(=O)[nH]c(=O)n2C | 14.1 (≈ 31.8 µM) |
| CCOC(=O)c1c(NC(=O)c2ccccc2Br)sc2c1CC(C)(C)NC2(C)C | 8.85 (≈ 19 µM) |
| O=C(Cc1ccccc1)Nc1nnc(-c2ccc3c(c2)CCCC3)o1 | 55.8 (≈ 167 µM) |
| O=C(Nc1nnc(-c2ccc(Cl)cc2)o1)c1ccco1 | 1.11 (≈ 3.83 µM) |
| Cc1ccc2sc(NNC(=O)c3nc4ccccc4s3)nc2c1C | 3.31 (≈ 9.34 µM) |
| COc1ccc2nc(Nc3nc(-c4ccccn4)cs3)sc2c1 | < 0.2 |
| Cc1ccc(NCCCn2c(C)c(C)n3c4c(=O)[nH]c(=O)n(C)c4nc23)c(C)c1 | 14.3 (≈ 36.2 µM) |
| O=C(CSCc1ccc(Cl)c(Cl)c1)Nc1ccc(F)cc1 | 12.9 (≈ 37.4 µM) |
| COc1cccc2sc(Nc3nc4ccc(Cl)cc4s3)nc12 | 13.9 (≈ 40 µM) |
| Cc1cc(NC(=O)NCCCSc2nc3ccccc3o2)no1 | 29.1 (≈ 87.5 µM) |
| Oc1ccc2ccccc2c1N=Nc1nn[nH]n1 | < 0.2 |

| SMILES | IC90 [µg/mL] |
| --- | --- |
| Cc1ccc(C(=O)Nc2nnc(-c3cc(C)ccc3C)o2)cc1 | 41.5 (≈ 135 µM) |
| CC(C)(C)c1ccc(-n2c(=O)[nH]c3c(C(N)=O)nc(CCc4ccccc4)nc32)cc1 | 2.36 (≈ 5.68 µM) |
| Cc1ccccc1Nc1nc(-c2cccnc2)nc2ccccc12 | 7.35 (≈ 23.5 µM) |
| O=C(Cc1ccccc1)N(CCCn1ccnc1)c1nc2c(F)cccc2s1 | 7.4 (≈ 18.8 µM) |
| CC1(C)COCN1S(=O)(=O)c1ccc(C(=O)Nc2nnc(-c3ccc(F)cc3)o2)cc1 | 23.3 (≈ 52.1 µM) |
| Cc1ccc(-n2ncc3c(=O)n(CC(=O)Nc4ccc([N+](=O)[O-])cc4)cnc32)cc1 | 6.91 (≈ 17.1 µM) |
| CCCCCOc1ccc(C(=O)Nc2nnc(-c3ccco3)o2)cc1 | 8.78 (≈ 25.7 µM) |
| CCN1C(=O)CCc2cc(NS(=O)(=O)c3ccc(OCC(C)C)cc3)ccc21 | 18.3 (≈ 45.5 µM) |
| O=C(CS(=O)(=O)c1ccccc1)Nc1cccc2c1C(=O)c1ccccc1C2=O | 20.9 (≈ 51.5 µM) |
| COc1cccc(-c2nnc(NC(=O)/C=C/c3cccs3)o2)c1 | 3.55 (≈ 10.8 µM) |
| CC(C)(C)C(=O)Nc1nnc(-c2cc(Cl)ccc2Cl)o1 | < 0.2 |
| Cc1cccc2sc(NNC(=O)c3cccc(F)c3)nc12 | 9.09 (≈ 30.2 µM) |
| O=C(Nc1nnc(-c2ccc(Br)cc2)o1)c1ccc2c(c1)CCCC2 | 16.8 (≈ 42.1 µM) |
| Cc1ccccc1C(=O)N1N=C(c2c(-c3ccccc3)c3cc(Br)ccc3[nH]c2=O)CC1c1ccccc1 (centres undefined) | 1.68 (≈ 2.99 µM) |
| COc1ccc2nc(Nc3nc(C(C)(C)C)cs3)sc2c1 | 10.1 (≈ 31.7 µM) |
| O=C(Nc1cccc(C(F)(F)F)c1)NC1CC(=O)N(c2ccc(F)cc2)C1 (centres undefined) | 13.2 (≈ 34.6 µM) |
| Cc1ccc(C)c(-c2nnc(NC(=O)C(C)(C)C)o2)c1 | 1.32 (≈ 4.83 µM) |
| O=C(NCc1nnc(SCC(=O)N2CCC(Cc3ccccc3)CC2)o1)c1ccco1 | 25.1 (≈ 57 µM) |
| CC(C)(C)C(=O)Nc1nnc(-c2ccc(Br)cc2)o1 | < 0.2 |
| COc1ccc(NC(=O)CCCN2C(=O)/C(=C\c3ccco3)SC2=S)cc1 | 3.3 (≈ 8.2 µM) |
| O=C(Nc1nnc(-c2cc(Cl)ccc2Cl)o1)c1ccco1 | 27.5 (≈ 84.8 µM) |
| Cc1cccc(C(=O)Nc2nnc(-c3ccc(C)cc3C)o2)c1 | 9.06 (≈ 29.5 µM) |
| COc1cccc(-c2nnc(NC(=O)c3ccccc3Br)o2)c1 | 2.17 (≈ 5.8 µM) |

| SMILES | IC90 [µg/mL] |
| --- | --- |
| CCOC(=O)N1CCc2c(sc(NC(=O)C3COc4ccccc4O3)c2C(N)=O)C1 (centres undefined) | 8.19 (≈ 19 µM) |
| Clc1cc(Cl)c2nc(N3CCCC3)sc2c1 | 19 (≈ 69.5 µM) |
| Cc1ccc(C)c(-c2nnc(NC(=O)CCc3ccccc3)o2)c1 | 10.9 (≈ 33.8 µM) |
| Cc1ccc(S(=O)(=O)CCCC(=O)Nc2nc3c(Cl)c(Cl)ccc3s2)cc1 | 3.41 (≈ 7.69 µM) |
| Cc1cc(Cl)ccc1N/C=C(\C#N)c1nc2ccccc2[nH]1 | 23.9 (≈ 77.4 µM) |
| CC(C)c1ccc(-c2csc(NC(=O)c3ccc4c(c3)OCCO4)n2)cc1 | 3.39 (≈ 8.91 µM) |
| CCOC(=O)c1cc(NC(=O)Nc2ccc(Cl)c(Cl)c2)c(C)nc1C | 12.4 (≈ 32.5 µM) |
| CCOC(=O)COc1ccc2cc(-c3ccc(OC)c(OC)c3)c(=O)oc2c1 | 2.18 (≈ 5.67 µM) |
| Cc1ccc(Cn2c(N3CCN(Cc4cccc5ccccc45)CC3)nc3c2c(=O)[nH]c(=O)n3C)cc1 | 25.4 (≈ 51.3 µM) |
| O=C(Nc1nnc(-c2ccco2)o1)c1ccc2c(c1)OCCO2 | 11.6 (≈ 37.1 µM) |
| COc1cc(/C=C(\C#N)c2nc(-c3ccccc3)cs2)cc([N+](=O)[O-])c1O | 54.6 (≈ 144 µM) |
| COc1ccc(C(=O)Nc2nc3c(s2)CCCC3)c(OC)c1 | 6.13 (≈ 19.3 µM) |
| COc1cccc(-c2nnc(NC(=O)C(C)C)o2)c1 | 32.7 (≈ 125 µM) |
| Cc1ccc(C)c(-c2nnc(NC(=O)c3ccc4ccccc4c3)o2)c1 | 18.8 (≈ 54.7 µM) |
| COc1cccc2sc(Nc3nc(-c4ccc(Cl)s4)cs3)nc12 | 7.28 (≈ 19.2 µM) |
| O=C(Nc1nnc(-c2ccc3c(c2)CCCC3)o1)c1ccccc1F | 0.93 (≈ 2.76 µM) |
| COc1ccc(-c2nnc(NC(=O)c3ccc(Cl)cc3Cl)o2)cc1 | 14.1 (≈ 38.7 µM) |
| O=C(Nc1ncc(Cc2cccc(C(F)(F)F)c2)s1)c1cccs1 | 2.92 (≈ 7.93 µM) |
| C=CCNC(=S)NNc1ccc([N+](=O)[O-])cc1 | 10 (≈ 39.6 µM) |
| Cc1ccc(-c2nnc(NC(=O)c3ccc(F)cc3)o2)c(C)c1 | 26.3 (≈ 84.5 µM) |
| O=C(Nc1nnc(-c2ccc(Br)cc2)o1)c1sc2ccccc2c1Cl | 6.7 (≈ 15.4 µM) |
| CCc1ccc(-c2nnc3c4cc5c(cc4n(Cc4ccccc4F)cc2-3)OCCO5)cc1 | 6.34 (≈ 14.4 µM) |

Source: PubChem BioAssay AID2842 (Southern Research Institute, 2010)
